Data on three molecules can be found in patent US11123319B2, “Methods and compositions for treating edema refractory to oral diuretics” (RESQ Pharmaceuticals LLC, priority 2019, dated 2021).

Where a name gives a salt, the structure may show the parent alone.

Data set [1] is described as follows: Stability of arginine and potassium bumetanide salt solutions over four weeks at 5 °C or 25 °C. In kind it is physicochemical. The note with it: for stability in solution (conclusion): at either 5° C. or 25° C. The procedure:
The stability of the arginine and potassium bumetanide salts was monitored over a four week period with storage at either 2-8° C. or 25° C. for that time period. The bumetanide salt solutions were evaluated on the basis of pH, concentration of bumetanide in solution, the percent assay recovery and the presence of an impurity (see Tables 18 and 19).

Data set [2] in a line: Solubility of bumetanide (free acid) in water in the presence and absence of surfactant, HPLC. In kind it is physicochemical. The note with it: 10 mg in 1 mL deionized water, no surfactant. On the procedure: Bumetanide, 10 mg, in its free acid form was added to 1 mL of deionized water and mixed using a vortex and sonicator. The solution was filtered using a 0.22 μm nylon syringe filter. To 900 μL deionized water, 100 μL of the filtered bumetanide solution was added before being characterized for the concentration of the bumetanide in solution using HPLC. The concentration of bumetanide was determined using a standard curve generated by bumetanide solutions of known concentrations. […] Therefore, to the 10 mg of bumetanide, 1 mL of deionized water containing 1.0%, 0.5% or 0.1% of the surfactant tetradecyl-β-D-maltoside. The bumetanide was then solubilized using a vortex and sonicator, after which it was filtered using a 0.22 μm nylon syringe filter. To 900 μL deionized water, 100 μL of the filtered bumetanide solution was added before being characterized for the concentration of the bumetanide in solution using HPLC. The resulting bumetanide concentrations are recorded in Table 1.

The nature of data set [3]: Serum pharmacokinetics of bumetanide after single intranasal, sublingual or intravenous dose in dogs. Particulars: both sexes, beagle, dog, in vivo, 0.5-mg IV dose (Second Replicate), individual animals. The procedure: The purpose of this study was to assess the pharmacokinetic profiles of various formulations of bumetanide, including arginine bumetanide salts (F69), potassium bumetanide salts (F10), an bumetanide emulsion (FE-9), and a nano-emulsion of bumetanide (FNE-1), which are described in Table 42, when each formulation is administered as a single intranasal dose or as a single sublingual dose in different vehicles when compared to single IV administration dose in male and female beagle dogs.
A total of four dogs were assigned to the study (3 males, 8-12 kg and 1 female, 7-11 kg). Because bumetanide is a diuretic, 30 minutes prior to dosing, the dogs received a 100 mL injection of Lactated Ringer's solution subcutaneously (SQ) for all events. The 100 mL injection was repeated ˜2 hours post-dose.
This study was conducted in 9 Events in two phases (A and B) in the same animals, separated by approximately a 48 hour or more washout period between events in each phase and ˜2 weeks rest period between phases, meaning Phase B events were initiated after ˜2 weeks rest period from completion of Event 5. The dosing regimen for Phase A and Phase B events are described in Table 43 and 44 respectively.
For intranasal administration, each dog was held in an upright position with the nose pointing up. […]

The nature of data set [4]: Solubility of bumetanide salts formed in situ with various bases (saturated solution, HPLC). In kind it is physicochemical. Particulars: deionized water with base added (salt formed in situ), thermodynamic from solid, 20 mg bumetanide in 1 mL deionized water + base, 0.22 μm filtrate, read-out: Calculated conc. (measured solubility of bumetanide salt).
Protocol: The acid form of bumetanide was weighed out to 20 mg and dissolved in 1 mL of deionized water by mixing with a vortex to form a low-pH solution of bumetanide. To this low pH bumetanide solution, a determined amount of base was added and mixed using a vortex for 2 minutes, to form a solution having a pH suitable for nasal administration. With the increasing pH the bumetanide salt formed in situ precipitated, in part, to form a saturated solution of the resulting salt form. The saturated solution was then filtered through a 0.22 μm filter to remove all precipitated bumetanide salt. The filtrate was collected, and its pH was measured. An aliquot of the saturated solution was assayed for bumetanide by HPLC to determine the maximum concentration achievable for the salt form in water at about neutral pH.
This procedure was repeated for various bases, including arginine, lysine, potassium, sodium, glycine, histidine, and the cationic lipophilic surfactants soy lecithin, distearoyl glycerol-3-phosphatidylamine, L-α-phosphatidylethanolamine and bis(2-ethylhexyl)amine, in order to determine the maximum solubility of each bumetanide salt solution.

As for `CCCCNc1cc(C(=O)O)cc(S(N)(=O)=O)c1Oc1ccccc1.N=C(N)NCCCC(N)C(=O)O` [arginine bumetanide salt], the Assay in data set [1] (1 week, 5° C.) worked out at 5.08 mg/mL; in data set [1] (1 week, 25° C.), 5.06 mg/mL; in data set [1] (2 weeks, 5° C.) it was 4.99 mg/mL; in data set [1] (2 weeks, 25° C.), 4.97 mg/mL; in data set [1] (4 weeks, 5° C.), 4.89 mg/mL; in data set [1] (4 weeks, 25° C.), 4.97 mg/mL. Besides, the Assay in data set [1] (T0) turned out to be 5.07 mg/mL. Besides, the pH in data set [1] (1 week, 5° C.) was 7.0; in data set [1] (1 week, 25° C.), 7.1; in data set [1] (2 weeks, 5° C.) it was 7.0; in data set [1] (2 weeks, 25° C.) it was 7.0; in data set [1] (4 weeks, 5° C.) it was 7.0; in data set [1] (4 weeks, 25° C.), 7.1. Further, in data set [1] (T0), the pH was determined as 7.0. The Osmolality in data set [1] (T0) stood at 335 mOsm/kg. Further, the Viscosity in data set [1] (T0) was 1.3 cP. For the same molecule, the “stability in solution (conclusion)” value in data set [1] was “stable for up to four weeks”. Also, in data set [1] (initially or after four weeks, 5° C. and 25° C.), the “impurity by HPLC” value was “no impurity was detected”.
As to `CCCCNc1cc(C(=O)O)cc(S(N)(=O)=O)c1Oc1ccccc1` [Bumetanide, bumetanide], the “solubility of free acid form in water” value in data set [2] is “Nearly no bumetanide in the free acid form was soluble water”. In addition, the concentration at 45 min in data set [3] was 13.9 ng/mL.
By solubility is commonly meant the dissolved amount per volume that the medium holds. `CCCCNc1cc(C(=O)O)cc(S(N)(=O)=O)c1Oc1ccccc1` [potassium bumetanide salt]: the Assay in data set [1] (1 week, 5° C.) stood at 5.18 mg/mL; in data set [1] (1 week, 25° C.) it was 5.10 mg/mL; in data set [1] (2 weeks, 5° C.), 4.97 mg/mL; in data set [1] (2 weeks, 25° C.) it was 4.96 mg/mL; in data set [1] (4 weeks, 5° C.), 5.00 mg/mL; in data set [1] (4 weeks, 25° C.), 5.03 mg/mL. Besides, in data set [1] (T0), the Assay is 5.10 mg/mL. In addition, the pH in data set [1] (1 week, 5° C.) was 7.0; in data set [1] (1 week, 25° C.), 7.0; in data set [1] (2 weeks, 5° C.), 7.0; in data set [1] (2 weeks, 25° C.), 7.1; in data set [1] (4 weeks, 5° C.) it was 7.0; in data set [1] (4 weeks, 25° C.), 7.1. The pH in data set [1] (T0) worked out at 7.0. Further, in data set [1] (T0), the Osmolality turned out to be 317 mOsm/kg. Also, the Viscosity in data set [1] (T0) amounted to 1.3 cP. Besides, the “stability in solution (conclusion)” value in data set [1] is listed as “stable for up to four weeks”. Moreover, in data set [4], the solubility at 2 min was 20.2 mg/mL.
